Source: publication PMC10424178, “Discovery of 5-Phenylpyrazolopyrimidinone Analogs as Potent Antitrypanosomal Agents with In Vivo Efficacy” (Journal of Medicinal Chemistry, 2023)
Entries after “also recorded” stand apart in the source; their conditions may differ.

How the values were obtained:
T. b. brucei [1] = test: Antitrypanosomal assay, T. brucei Squib 427, resazurin viability; type: cell-based; conditions: for times more potent than 1 against T. b. brucei: relative to 1
human PDE4D2 = human PDE4D2 (Homo sapiens, UniProt Q08499); test: Eurofins Safety-47 panel, PDE4D2; conditions: read-out: inhibition of human PDE4D2
Chain of human PDE4D2 (Q08499 303-809): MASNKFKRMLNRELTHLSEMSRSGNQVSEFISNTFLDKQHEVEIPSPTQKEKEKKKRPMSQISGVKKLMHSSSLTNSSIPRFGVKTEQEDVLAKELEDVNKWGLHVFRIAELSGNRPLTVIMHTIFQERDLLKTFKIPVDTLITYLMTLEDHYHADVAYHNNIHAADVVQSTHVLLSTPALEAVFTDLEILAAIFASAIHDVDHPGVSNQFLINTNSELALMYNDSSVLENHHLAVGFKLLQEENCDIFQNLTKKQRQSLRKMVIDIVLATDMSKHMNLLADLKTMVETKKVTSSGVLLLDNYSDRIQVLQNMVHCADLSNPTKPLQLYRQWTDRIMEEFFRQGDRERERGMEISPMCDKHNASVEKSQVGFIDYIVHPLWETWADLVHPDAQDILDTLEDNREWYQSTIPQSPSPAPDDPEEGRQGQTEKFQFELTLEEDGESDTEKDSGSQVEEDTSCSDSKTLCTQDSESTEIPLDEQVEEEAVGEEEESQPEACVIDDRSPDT

TbrPDEB1 = TbrPDEB1 (Trypanosoma brucei, UniProt Q8WQX9); test: TbrPDEB1 enzyme assay (PDELight HTS cAMP phosphodiesterase kit); type: biochemical, T. brucei
Chain of TbrPDEB1 (Q8WQX9 entry or part of it): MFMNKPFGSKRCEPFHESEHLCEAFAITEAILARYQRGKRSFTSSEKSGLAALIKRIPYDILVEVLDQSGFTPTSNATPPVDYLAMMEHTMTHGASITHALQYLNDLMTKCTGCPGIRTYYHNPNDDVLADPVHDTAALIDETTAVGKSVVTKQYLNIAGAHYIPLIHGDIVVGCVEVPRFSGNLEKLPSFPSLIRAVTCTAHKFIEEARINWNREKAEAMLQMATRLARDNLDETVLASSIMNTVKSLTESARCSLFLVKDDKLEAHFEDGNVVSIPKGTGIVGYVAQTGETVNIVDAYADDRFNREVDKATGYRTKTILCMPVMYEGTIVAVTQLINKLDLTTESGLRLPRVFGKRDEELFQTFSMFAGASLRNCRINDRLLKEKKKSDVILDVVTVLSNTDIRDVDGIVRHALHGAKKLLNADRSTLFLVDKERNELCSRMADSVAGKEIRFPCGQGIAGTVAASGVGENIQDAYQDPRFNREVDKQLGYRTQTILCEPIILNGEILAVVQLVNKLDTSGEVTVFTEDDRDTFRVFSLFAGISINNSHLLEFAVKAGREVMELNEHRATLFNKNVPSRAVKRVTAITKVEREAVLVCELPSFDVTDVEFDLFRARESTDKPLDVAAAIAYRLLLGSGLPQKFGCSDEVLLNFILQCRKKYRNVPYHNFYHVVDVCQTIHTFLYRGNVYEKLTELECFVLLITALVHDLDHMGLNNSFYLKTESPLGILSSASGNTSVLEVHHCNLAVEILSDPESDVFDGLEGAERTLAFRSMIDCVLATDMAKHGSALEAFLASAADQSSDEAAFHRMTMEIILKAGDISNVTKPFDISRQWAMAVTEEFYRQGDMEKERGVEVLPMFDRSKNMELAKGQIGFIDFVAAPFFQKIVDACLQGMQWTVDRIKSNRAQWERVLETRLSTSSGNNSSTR

T. b. brucei [2] = test: Acute (stage-I) mouse model of T. b. brucei infection; type: in vivo
PDE5 = PDE5 (Homo sapiens, UniProt O76074); test: PDE5 inhibition; type: biochemical

## CC(C)c1n[nH]c2c(=O)[nH]c(-c3ccccc3)nc12 [compound 15, 3-Isopropyl-5-phenyl-1,6-dihydro-7H-pyrazolo[4,3-d]pyrimidin-7-one]
T. b. brucei [1]
  times more potent than 1 against T. b. brucei: 125 times

## CC(C)c1n[nH]c2c(=O)[nH]c(-c3ccncc3)nc12 [compound 16, 3-Isopropyl-5-(pyridin-4-yl)-1,6-dihydro-7H-pyrazolo[4,3-d]pyrimidin-7-one]
T. b. brucei [1]
  times more potent than 1 against T. b. brucei: 16 times

## COc1ccccc1-c1nc2c(C(C)C)n[nH]c2c(=O)[nH]1 [compound 22, 3-Isopropyl-5-(2-methoxyphenyl)-1,6-dihydro-7H-pyrazolo[4,3-d]pyrimidin-7-one]
T. b. brucei [1]; relative to 15
  reduction in potency against T. b. brucei compared with 15: 25 fold

## CC(C)c1n[nH]c2c(=O)[nH]c(-c3ccc(F)cc3)nc12 [compound 30, 5-(4-Fluorophenyl)-3-isopropyl-1,6-dihydro-7H-pyrazolo[4,3-d]pyrimidin-7-one]
Human PDE4D2
  inhibition at 10 µM: 75%
TbrPDEB1
  TbrPDEB1 inhibition pKi: inactive
T. b. brucei [2]; 25 mg/kg b.i.d. for 5 days
  time by which all animals relapsed and succumbed: ≤ 11 dpi
T. b. brucei [2]; 50 mg/kg PO twice daily for 5 consecutive days, follow-up 60 dpi
  outcome of treatment (parasitemia / cure): all infected mice were cured; also recorded: apparent full clearance of parasitemia; also recorded: complete cure
PDE5
  inhibition at 10 µM: 52%

## CC(C)c1n[nH]c2c(=O)[nH]c(-c3ccc(N4CCN(C)CC4)cc3)nc12 [compound 45, 3-Isopropyl-5-(4-(4-methylpiperazin-1-yl)phenyl)-1,6-dihydro-7H-pyrazolo[4,3-d]pyrimidin-7-one]
T. b. brucei [1]; Trypanosoma brucei, T. brucei Squib 427 strain, 72 h drug exposure, highest concentration 64 μM, mean of at least two independent experiments, read-out: T. b. brucei pIC50 (converted)
  IC50: 20 µM
